Reference: patent US20090297545A1, “IMMUNOMODULATORY DAIRY PEPTIDES AND USES THEREOF” (Universite Laval, priority 2008, published 2009)
Several values for one entry are separate records, joined by “and”; a condition that tells them apart may be missing. Equal values may be shown once.

Tests used:
Format in all cases: cell-based, BALB/c mice
[1] = test system: murine splenocytes; assay: In vitro murine splenocyte proliferation assay (Alamar Blue), Example III; settings: for Effect on splenocyte proliferation in the presence of ConA at higher concentrations / Effect on ConA-induced proliferation at low concentrations: ConA 0.5 μg/mL; for Concentration at which stimulation of resting cell proliferation becomes significant: resting cells, dose-dependent up to 2000 μg/mL; for Stimulation index (SI), proliferation of resting splenocytes: without ConA; for Effect on ConA-induced proliferation at low concentrations: 10 and 100 μg/mL
Method: In vitro murine splenocyte proliferation assay. The impact of whey peptides on splenocyte proliferation was assessed as follow. Spleens from 6-week-old female BALB/c mice (Charles River, St-Constant, QC, Canada) were removed, mechanically disrupted in complete RPMI-1640 medium (RPMI-1640 medium supplemented with 2 mmol L^−1 L-glutamine (Wisent, St-Bruno, QC, Canada), 10% foetal calf serum (FCS, Wisent), 50 μmol L^−1 mercaptoethanol (Sigma-Aldrich), and 100 μg mL^−1 of penicillin/streptomycin (Wisent), and then filtered through 70 μm cell strainer (BD Falcon, Bedford, Mass., USA) under aseptic conditions. Erythrocytes were lysed by osmotic shock using 0.87% NH4Cl (Sigma-Aldrich) for 2 min at 37° C., then cells were washed 3 times at 4° C. with complete RPMI. They were stained with 0.4% trypan blue (Celigro, Mediatech, Washington, D.C., USA) and counted using a Malassez chamber. The cell suspension was then adjusted to 1.25×10^6 viable cells mL^−1 in RPMI medium.
The cells (100 μL) were added to the wells of 96-well round-bottomed microplates containing 50 μL of RPMI, or 50 μL of peptide solutions. Various concentrations (10-2000 μg mL^−1) of the solutions, which were prepared in complete RPMI and adjusted to pH 7, were added to the wells. The same experiments were also performed in the presence of ConA (0.5 μg mL^−1) to evaluate the effects of the products on ConA-stimulated cells. The microplates with and without ConA were incubated for 72 h and 96 h, respectively. Cell proliferation was evaluated by the reduction of the fluorochrome Alamar Blue™ (BioSource international, Camarillo, Calif., USA), which was added to the wells (20 μL) for the last 24 h of the incubation periods. The fluorescence of the supernatants was monitored at an excitation wavelength of 544 nm and an emission wavelength of […] using a fluorometer (Fluoroscan Ascent, Thermo Electron Inc., Milford, Mass., USA). Data are expressed as a stimulation index (SI).

[2] = test system: murine splenocytes; assay: Cytokine profile of splenocyte supernatants, RayBio Mouse Cytokine Antibody Array; settings: peptide 2000 μg/mL + ConA 0.5 μg/mL, 72 h; Cells + ConA = 1
Method: Cytokine analyses. After 72 hours, the supernatants from the splenocyte cultures with the cells, cells+ConA (0.5 μg/mL), and each of the peptides (2000 μg/mL) in the presence of ConA (0.5 μg/mL) were collected and stored at −20° C. until used for the cytokine detection assay. A cytokine profile analysis was performed by using the RayBio Mouse Cytokine Antibody Array G series 2 (RayBiotech, Inc., Norcross, Ga.), in order to obtain semi-quantitative levels of 32 different growth factors, cytokines and chemokines (Table 7).
Incubation protocol, signal detection, and interpretation of the data were performed according to manufacturer instructions. Results were expressed as the relative quantity of cytokines detected in the culture supernatants calculated according to the following equation: […]

[3] = test system: murine splenocytes; assay: Ex vivo murine splenocytes proliferation assay (Alamar Blue), Example I
Method: Ex vivo murine splenocytes proliferation assay. The splenocytes were isolated from 6- to 12-weeks-old female BALB/c mice (Charles River, St-Constant, QC, Canada) and cultured in the absence and presence of suboptimal concentration of ConA (0.5 μg/mL). The peptides were solubilized in complete RPMI medium, agitated overnight at 4° C. then the solutions were adjusted to pH 7. Thereafter, the peptide solutions were added at various final concentrations (10-2000 μg/mL, protein basis) to the wells of 96-well round-bottomed microplates, which were incubated at 37° C. at 80% relative humidity in a 5% CO2 atmosphere for 72 h (with ConA) or 96 h (without ConA). Cell proliferation was evaluated by the reduction of the fluorochrome Alamar Blue™ (BioSource international, Camarillo, Calif., USA), which was added into the wells for the last 24 h of the incubation periods. The fluorescence of the supernatants was monitored at an excitation wavelength of 560 nm and an emission wavelength of 590 nm using a fluorometer (Fluoroscan Ascent, Thermo Electron Inc., Milford, Mass., USA). The assays were performed in triplicate (three wells per sample) and data are expressed as stimulation indices (SI), and calculated using the following equations: […]

[4] = test system: murine splenocytes; assay: Cytokine secretion in splenocyte culture supernatants by ELISA, Example I
Method: Cytokine analysis. The supernatants from 72 h-splenocytes cultures were collected and their cytokine content was measured. The optimal incubation times were determined from preliminary assays with peptide fractions. The levels of IL-4, IL-10 and IFN-γ were determined using commercial ELISA kits (BioLegend, San Diego, Calif., USA) according to the manufacturer's instructions. Interleukin-2 levels were also measured by ELISA using a commercial kit (BioSource International, Camarillo, Calif., USA) according to the manufacturer's instructions. The results are the means of four or more assays (three wells per sample). The detection limits for IL-2, IL-4, IL-10 and IFN-γ were <8.0, <1.0, <30.0 and <4.0 pg/mL, respectively.
Cytokine analysis were performed at concentration leading to optimal spleen cells proliferation of peptide β-Lg f139-148 (SEQ ID NO. 1) (2000 μg/mL) as reported in Tables 2 and 3. The sequence β-Lg f78-83 (SEQ ID NO. 10), resulting in no effect on the cytokine secretion of resting- and ConA-stimulated murine splenocytes (results not shown), was used as control at concentration of 10 μg/mL for statistical analysis. The effects of the selected peptide on cytokine secretion from splenocytes cultured in the absence and presence of 0.5 μg/mL of ConA are shown in Table 5.

[5] = test system: murine splenocytes; assay: Ex vivo murine splenocytes proliferation assay (Alamar Blue), Example I; settings: peptide 2000 μg/mL, FIG. 2
[6] = splenocytes with ConA 0.5 μg mL^−1, control peptide 10 μg/mL
[7] = splenocytes without ConA, control peptide 10 μg/mL

Row | Substance | Effect on splenocyte proliferation in the presence of ConA at higher concentrations [1] | Concentration at which stimulation of resting cell proliferation becomes significant [1] | Relative quantity of IFN-γ in supernatant [2] | Relative quantity of IL-2 in supernatant [2] | Relative quantity of IL-3 in supernatant [2] | Relative quantity of IL-4 in supernatant [2] | Relative quantity of IL-17 in supernatant [2] | Relative quantity of RANTES in supernatant [2] | Relative quantity of VEGF in supernatant [2] | Effect on ConA-induced proliferation at low concentrations [1] | further results
1 | ALK (listed as Homo sapiens) [β-Lg f139-141] | lost their stimulating capacity | 500 µg/mL | 1.0 | 1.7 | 0.7 | 1 | 1.1 | 1.7 | 0.9 |  | 
2 | His-Ile-Arg (HIR; listed as Homo sapiens) [β-Lg f146-148] | lost their stimulating capacity | 500 µg/mL | 8.6 | 2.1 | 1.8 | 0.5 | 1.4 | 0.8 | 4.8 | inhibited | Stimulation index (SI), proliferation of resting splenocytes ([1]; 500 μg/mL): 1.20; Stimulation index (SI), proliferation of resting splenocytes ([1]; 1000 μg/mL): 1.36; Stimulation index (SI), proliferation of resting splenocytes ([1]; 2000 μg/mL): 1.37
3 | IPAVFK (listed as Homo sapiens) [β-Lg f78-83, β-lactoglobulin fragment 78-83 used as control peptide, reference compound] |  |  |  |  |  |  |  |  |  |  | Effect on the proliferation of ConA-stimulated murine splenocytes ([3]; all concentrations studied (10-2000 μg/mL), ConA 0.5 μg/mL, FIG. 1B): no effect; Effect on the proliferation of resting murine splenocytes ([3]; all concentrations studied (10-2000 μg/mL), FIG. 1A): no effect; Stimulation index, proliferation of murine splenocytes in the presence of Concavanalin A ([3]; peptide 10 μg mL^−1, 72 h, ConA 0.5 μg/mL): 2.10 and 1.91 and 1.93 and 1.68; Stimulation index, proliferation of resting murine splenocytes ([3]; peptide 10 μg mL^−1, 96 h, without ConA): 0.98 and 1.00 and 1.11 and 1.02 and 1.04; Effect on the cytokine secretion of resting- and ConA-stimulated murine splenocytes ([4]; results not shown): no effect; IFN-γ secretion in supernatant [4, 6]: 252.9 pg/mL; IL-2 secretion in supernatant [4, 6]: 15.6 pg/mL; IL-4 secretion in supernatant [4, 6]: 4.4 pg/mL; IL-10 secretion in supernatant [4, 6]: <30.0 pg/mL; IFN-γ secretion in supernatant [4, 7]: 7.1 pg/mL; IL-2 secretion in supernatant [4, 7]: 10.0 pg/mL; IL-4 secretion in supernatant [4, 7]: <1.0 pg/mL; IL-10 secretion in supernatant [4, 7]: <30.0 pg/mL; Microscopic appearance of resting- and ConA-stimulated cultured cells [5]: no effect on the appearance of cultured cells
4 | Asp-Thr-Asp-Tyr (DTDY; listed as Homo sapiens) [β-Lg f96-99] | lost their stimulating capacity | 500 µg/mL | 4.5 | 3.6 | 2.8 | 1.8 | 1.7 | 1.4 | 2.3 | inhibited | 
